Holding throughout (assay type): in vivo, mouse
The subject of one experiment is Calu-6 lung xenograft. Briefly: Single Agent Efficacy Dosing, Calu-6 xenograft. To be noted: Calu-6, 15 mg/kg SC, BID×5 rest 2 days ×3 cycles. On the procedure: The ability of CHK1 inhibitors to effect tumor killing can be determined in vivo using the Calu-6 lung xenograft efficacy model. Calu-6 lung cancer cells (ATCC) are cultured as described above. Cells are harvested and washed twice with phosphate buffered saline and 1×10^6 cells (Calu-6) in growth media (without serum) are mixed with equal volume of BD Matrigel™ matrix (BD Bioscience, Franklin, NJ), then injected subcutaneously into the flank of nude mice (CD-1 nu/nu, from Charles River Labs, Wilmington, MA).

In experiment [1] the test system is CTG-0142 EWS patient-derived xenograft. The experiment in a line: Xenograft Tumor Model CTG-0142. Conditions: comparator day 28, p-value 0.376. On the procedure:
(§1) The efficacy of 5-(5-(2-(3-aminopropoxy)-6-methoxyphenyl)-1H-pyrazol-3-ylamino)pyrazine-2-carbonitrile methanesulfonic acid monohydrate is measurable in vivo in mouse models of neuroblastomas and human pediatric and adult sarcomas. 5-(5-(2-(3-Aminopropoxy)-6-methoxyphenyl)-1H-pyrazol-3-ylamino)pyrazine-2-carbonitrile methanesulfonic acid monohydrate (10 mg/kg) can be administered subcutaneously to nude mice bearing either cell-derived xenografts (CDX) or patient-derived xenografts (PDX) of human rhabdomyosarcoma, desmoplastic small round cell tumor (DSRCT), osteosarcoma, and Ewing's sarcoma using a 3 day on, 4 day off b.i.d. dosing schedule. Tumor volume and body weight can be measured two times per week. Tumor-specific parameters can be evaluated by immumohistochemistry. […]
(§2) For all “ST” models (encompassing RMS and LMS), patient-derived xenografts are established from viable human tumor tissue and are serially passaged in animals a limited number of times to maintain tumor heterogeneity. […] Tumor response is determined by tumor volume measurement performed twice per week during the course of treatment.

Experiment [2] has as its system CTG-0994 EWS patient-derived xenograft. The experiment in a line: Xenograft Tumor Model CTG-0994. To be noted: comparator day 25, p-value <0.001. On the procedure: as §1, §2
Experiment [3] concerns CTG-1006 LMS patient-derived xenograft. The experiment in a line: Xenograft Tumor Model CTG-1006. Conditions: comparator day 27, p-value <0.001. An excerpt:
For all “CTG” models (encompassing human RMS, DSRCT, EWS, OS and LMS patient-derived xenograft models), female NCr nude spontaneous mutant mice (5-8 weeks old, Taconic) are implanted unilaterally in the flank region with tumor fragments harvested from donor animals, each implanted from a specific passage lot.
(§3) For all “ST” models (encompassing RMS and LMS), patient-derived xenografts are established from viable human tumor tissue and are serially passaged in animals a limited number of times to maintain tumor heterogeneity. In subcutaneous models, athymic nude mice (Crl:NU(NCr)-Foxn1nu) or CB-17 SCID mice (CRL-CB17/Icr-Prkdcscid/IcrIcoCrl) are injected or implanted unilaterally into the flank with tumor fragments harvested from host animals, each implanted from a specific passage lot. For all studies, measure tumor growth and body weight twice per week beginning on the seventh day after implantation. When tumor size reaches 150-300 mm^3, randomize animals and group into groups of 4-7 animals. Prepare test compound in an appropriate vehicle (e.g. vehicle can be 20% Captisol® in sterile water) and administer subcutaneously for three consecutive days followed by a four day dosing holiday and repeat for a minimum of four weeks. Tumor response is determined by tumor volume measurement performed twice per week during the course of treatment.

For experiment [4], the system named is IMR-32 human NBM cancer cell xenograft. Briefly: Xenograft Tumor Model IMR-32. Conditions: IMR-32, NBM, comparator day 66, p-value <0.001. On the procedure:
The following protocol can be used to measure reductions in tumor volume in response to an active pharmaceutical ingredient. Expand human NBM cancer cells SH-SY5Y (ATCC, #CRL-2226) in culture, harvest, and inject 5×10^6 cells in 200 μL of 1:1 solution of HBSS and Matrigel® subcutaneously into the right rear flank of female CD-1 nu/nu mice (20-24 g, Charles River Laboratories). Expand human NBM cancer cells KELLY (Sigma-#92110411) in culture, harvest, and inject 5×10^6 cells in 200 μL of 1:1 solution of HBSS and Matrigel® subcutaneously into the right rear flank of female CB-17 SCID mice (20-24 g, Charles River Laboratories). Expand human NBM cancer cells IMR-32 (ATCC, #CCL-127) in culture, harvest, and inject 5×10^6 cells in 200 μL of 1:1 solution of HBSS and Matrigel® subcutaneously into the right rear flank of female CB-17 SCID mice (20-24 g, Charles River Laboratories).
as §2

Experiment [5] has as its system ST0001 LMS patient-derived xenograft. Briefly: Xenograft Tumor Model ST0001. To be noted: comparator day 19, p-value 0.247. On the procedure:
as §3

Experiment [6] concerns ST550 LMS patient-derived xenograft. Briefly: Xenograft Tumor Model ST550. To be noted: comparator day 31, p-value 0.712. On the procedure: as §3
Experiment [7] relates to ST1547 LMS patient-derived xenograft. Briefly: Xenograft Tumor Model ST1547. Conditions: comparator day 28, p-value <0.001. On the procedure: as §3
Experiment [8] relates to Embryonal Rhabdomyosarcoma xenograft models. Briefly: Sarcoma xenograft models by tumor subtype: Embryonal Rhabdomyosarcoma. Conditions: age of patients 2-7 years. On the procedure: The efficacy of 5-(5-(2-(3-aminopropoxy)-6-methoxyphenyl)-1H-pyrazol-3-ylamino)pyrazine-2-carbonitrile methanesulfonic acid monohydrate is measurable in vivo in mouse models of neuroblastomas and human pediatric and adult sarcomas. 5-(5-(2-(3-Aminopropoxy)-6-methoxyphenyl)-1H-pyrazol-3-ylamino)pyrazine-2-carbonitrile methanesulfonic acid monohydrate (10 mg/kg) can be administered subcutaneously to nude mice bearing either cell-derived xenografts (CDX) or patient-derived xenografts (PDX) of human rhabdomyosarcoma, desmoplastic small round cell tumor (DSRCT), osteosarcoma, and Ewing's sarcoma using a 3 day on, 4 day off b.i.d. dosing schedule. Tumor volume and body weight can be measured two times per week. Tumor-specific parameters can be evaluated by immumohistochemistry.
Expand human RMS cancer cells SJCRH-30 (St. Jude Children's Research Hospital) in culture, harvest, and inject 5×10^6 cells in 200 μL of HBSS subcutaneously into the right rear flank of female athymic nude mice (20-22 g, Harlan Laboratories). […]
as §2

Experimental findings from patent publication US12558345B2, “CHK1/2 inhibitors for use in the treatment of neuroblastomas and/or soft tissue sarcomas” (Eli Lilly and Company, priority 2015, dated 2026) are described below.

Where a name gives a salt, the structure may show the parent alone.

For the molecule `COc1cccc(OCCCN)c1-c1cc(Nc2cnc(C#N)cn2)n[nH]1` [Example 2, 5-(5-(2-(3-Aminopropoxy)-6-methoxyphenyl)-1H-pyrazol-3-ylamino)pyrazine-2-carbonitrile dihydrogen chloride salt], in the experiment with Calu-6 lung xenograft, the “growth inhibition compared with gemcitabine plus compound combination schedule” value is listed as “superior growth inhibition”; the tumor regression entry was “Complete tumor regression is rapid and durable”.
Regarding `COc1cccc(OCCCN)c1-c1cc(Nc2cnc(C#N)cn2)n[nH]1` [Example 5, 5-(5-(2-(3-Aminopropoxy)-6-methoxyphenyl)-1H-pyrazol-3-ylamino)pyrazine-2-carbonitrile methanesulfonic acid monohydrate], the “% T/C” value in experiment [1] is 66%; in [5] it was 292%; in [6], 94%; in experiment [7], 5%. For the same molecule, the “% Regression” value in experiment [2] was −79%; in experiment [3] it was −24%; in experiment [4] it was −72%. For the same molecule, the “Result of Treatment: Complete Response (models)” value in [8] is recorded as 1/3 Complete. The “Result of Treatment: Stable Disease (models)” value in experiment [8] is “Response; 1/3”.
